Results as given in patent US20230116972A1, “CD38 MODULATORS AND METHODS OF USE THEREOF” (Cytokinetics, Inc., priority 2021, published 2023).
pIC50: −log10 of the molar value. Like-named read-outs stand apart in the source and are kept apart here.

Experiments:
Type in all cases: in vitro ADME
CYP1A2 = target: T1, CYP1A2 (Homo sapiens, UniProt P05177); assay: time dependent inhibition of CYP450 in pooled human microsomes
T1 construct: from tissue; host or cells: human liver microsomes (pooled in the time-dependent assay)
T1 sequence (P05177 1-516): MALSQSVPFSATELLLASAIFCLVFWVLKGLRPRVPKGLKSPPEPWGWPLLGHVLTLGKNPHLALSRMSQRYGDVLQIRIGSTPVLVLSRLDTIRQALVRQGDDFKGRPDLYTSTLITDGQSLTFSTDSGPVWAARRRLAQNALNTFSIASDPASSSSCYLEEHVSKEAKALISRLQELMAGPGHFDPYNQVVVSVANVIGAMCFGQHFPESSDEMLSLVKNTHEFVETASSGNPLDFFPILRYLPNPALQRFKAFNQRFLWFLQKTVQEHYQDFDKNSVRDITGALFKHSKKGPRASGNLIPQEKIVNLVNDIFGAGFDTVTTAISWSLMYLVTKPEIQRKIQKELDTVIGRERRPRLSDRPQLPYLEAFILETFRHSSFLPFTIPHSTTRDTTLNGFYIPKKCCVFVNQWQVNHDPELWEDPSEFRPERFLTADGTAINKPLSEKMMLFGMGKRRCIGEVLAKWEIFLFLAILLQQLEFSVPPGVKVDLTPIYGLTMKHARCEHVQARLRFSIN
Method: (§1) Time dependent inhibition: An assessment of the time-dependent Inhibitory potential of test compounds against the principal human cytochrome P450 isozymes was carried out using standard methods (Grimm et al, “The Conduct of in Vitro Studies to Address Time-Dependent Inhibition of Drug-Metabolizing Enzymes: A Perspective of the Pharmaceutical Research and Manufacturers of America”, Drug Metabolism and Disposition, 37 (7): 1355, 2009). […] Each compound was pre-incubated at 37° C. plus and minus NADPH for 30 min, and with 0 min pre-incubation for assessment of potential time dependent inhibition. LC-MS/MS was used to quantify metabolite formation. […] Note that, in Tables 8 and 9, the “Compound No” corresponds to the compound numbers in Table 1.

CYP2C8 = target: T2, CYP2C8 (Homo sapiens, UniProt P10632); assay: as above
T2 construct: Pooled human microsomes and selective CYP probe substrates were used; from tissue; host or cells: pooled human (hepatic) microsomes
T2 sequence (P10632 1-490): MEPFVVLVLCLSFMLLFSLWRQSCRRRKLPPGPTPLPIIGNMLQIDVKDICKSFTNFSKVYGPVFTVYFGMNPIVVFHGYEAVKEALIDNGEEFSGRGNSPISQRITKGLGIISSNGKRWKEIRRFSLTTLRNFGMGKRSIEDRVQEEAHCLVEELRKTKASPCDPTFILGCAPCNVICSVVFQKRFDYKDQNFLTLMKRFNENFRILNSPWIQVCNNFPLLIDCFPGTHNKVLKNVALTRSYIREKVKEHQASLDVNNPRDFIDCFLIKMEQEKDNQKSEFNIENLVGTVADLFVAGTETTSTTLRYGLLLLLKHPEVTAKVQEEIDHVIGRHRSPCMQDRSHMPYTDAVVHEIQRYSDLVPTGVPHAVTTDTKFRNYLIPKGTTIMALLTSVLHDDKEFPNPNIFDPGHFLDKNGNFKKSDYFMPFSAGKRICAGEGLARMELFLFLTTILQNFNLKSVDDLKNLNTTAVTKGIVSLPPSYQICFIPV
Method: as §1

CYP2D6 = target: T3, CYP2D6 (Homo sapiens, UniProt P10635); assay: as above
T3 construct: from tissue; host or cells: human liver microsomes (pooled in the time-dependent assay)
Method: as §1

CYP2B6 = target: T4, CYP2B6 (Homo sapiens, UniProt P20813); assay: as above
T4 construct: from tissue; host or cells: human liver microsomes (pooled in the time-dependent assay)
T4 sequence (P20813 1-491): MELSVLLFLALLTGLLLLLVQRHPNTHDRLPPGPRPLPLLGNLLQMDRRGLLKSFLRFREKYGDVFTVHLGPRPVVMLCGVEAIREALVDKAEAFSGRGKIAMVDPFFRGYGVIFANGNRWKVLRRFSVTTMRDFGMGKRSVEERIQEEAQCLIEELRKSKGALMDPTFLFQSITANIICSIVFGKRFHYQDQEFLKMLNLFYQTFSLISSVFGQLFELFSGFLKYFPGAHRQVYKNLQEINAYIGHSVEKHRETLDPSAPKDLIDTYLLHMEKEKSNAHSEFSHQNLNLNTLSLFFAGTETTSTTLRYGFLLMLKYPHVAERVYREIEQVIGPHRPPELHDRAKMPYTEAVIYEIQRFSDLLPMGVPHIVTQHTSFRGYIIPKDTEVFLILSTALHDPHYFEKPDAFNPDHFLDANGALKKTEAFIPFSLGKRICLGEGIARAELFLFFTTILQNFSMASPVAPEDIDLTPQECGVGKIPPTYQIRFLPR
Method: as §1

CYP2C19 = target: T5, CYP2C19 (Homo sapiens, UniProt P33261); assay: as above
T5 construct: from tissue; host or cells: human liver microsomes (pooled in the time-dependent assay)
Method: as §1

[1] = test system: human hepatic cytochrome P450 isozymes (CYP1A2, 2B6, 2C8, 2C9, 2C19, 2D6, and 3A4); assay: time dependent inhibition, statement over all isozymes tested; settings: any isozymes; pooled human microsomes; no indication of time dependent inhibition
Method: as §1

[2] = between 30 min pre-incubation plus NADPH and 0 min
[3] = pre-incubation 30 min (NO NADPH)

T5 sequence (P33261 whole entry): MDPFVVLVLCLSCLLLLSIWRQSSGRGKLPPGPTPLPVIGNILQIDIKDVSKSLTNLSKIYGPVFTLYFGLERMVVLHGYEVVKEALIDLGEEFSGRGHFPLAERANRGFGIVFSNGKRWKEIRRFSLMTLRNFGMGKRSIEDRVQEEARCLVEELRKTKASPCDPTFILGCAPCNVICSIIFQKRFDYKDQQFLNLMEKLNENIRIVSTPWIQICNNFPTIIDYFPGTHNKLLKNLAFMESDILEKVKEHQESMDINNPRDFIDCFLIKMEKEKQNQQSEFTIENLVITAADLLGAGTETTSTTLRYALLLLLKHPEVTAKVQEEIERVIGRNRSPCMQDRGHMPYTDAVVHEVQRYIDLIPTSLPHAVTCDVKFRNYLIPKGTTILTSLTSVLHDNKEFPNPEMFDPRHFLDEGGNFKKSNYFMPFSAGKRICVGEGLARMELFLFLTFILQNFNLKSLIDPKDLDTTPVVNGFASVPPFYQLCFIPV
T3 sequence (P10635 whole entry): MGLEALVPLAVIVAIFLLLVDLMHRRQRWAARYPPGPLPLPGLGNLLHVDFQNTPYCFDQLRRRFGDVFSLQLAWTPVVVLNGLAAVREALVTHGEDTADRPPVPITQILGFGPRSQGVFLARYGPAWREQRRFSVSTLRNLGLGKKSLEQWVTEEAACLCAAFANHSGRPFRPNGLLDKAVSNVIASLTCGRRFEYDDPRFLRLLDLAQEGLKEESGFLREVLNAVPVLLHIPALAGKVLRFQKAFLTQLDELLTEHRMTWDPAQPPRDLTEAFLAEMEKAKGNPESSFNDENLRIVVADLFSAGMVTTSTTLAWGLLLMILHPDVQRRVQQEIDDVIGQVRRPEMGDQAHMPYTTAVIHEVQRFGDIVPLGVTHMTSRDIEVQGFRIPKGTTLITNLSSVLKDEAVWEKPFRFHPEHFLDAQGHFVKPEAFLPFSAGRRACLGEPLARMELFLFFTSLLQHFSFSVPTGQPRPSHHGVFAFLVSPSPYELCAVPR

CO[C@H]1CC[C@H](NC(=O)c2nccc(-c3cncn3C)n2)CC1 [Compound 148, N-((1r,4r)-4-methoxycyclohexyl)-4-(1-methyl-1H-imidazol-5-yl)pyrimidine-2-carboxamide]
pIC50 (CYP1A2; 0 min pre-incubation, pooled human microsomes, read-out: IC50 CYP1A2 (reversible inhibition)): 5.00
CYP1A2 IC50 fold shift (CYP1A2; [2]): 0.8
pIC50 (CYP1A2; pre-incubation 30 min (NADPH), read-out: CYP1A2 IC50): 4.93
pIC50 (CYP1A2; pre-incubation 30 min (NO NADPH), read-out: CYP1A2 IC50): 4.92
CYP2C8 IC50 fold shift (CYP2C8; [2]): none
pIC50 (CYP2C8; pre-incubation 0 min): < 4.52
pIC50 (CYP2C8; pre-incubation 30 min (NADPH)): < 4.52
pIC50 (CYP2C8; [3]): < 4.52
pIC50 (CYP2D6; 0 min pre-incubation, pooled human microsomes, read-out: IC50 CYP2D6 (reversible inhibition)): 4.86
CYP2D6 IC50 fold shift (CYP2D6; [2]): 1.1
pIC50 (CYP2D6; pre-incubation 30 min (NADPH), read-out: CYP2D6 IC50): 4.91
pIC50 (CYP2D6; pre-incubation 30 min (NO NADPH), read-out: CYP2D6 IC50): 5.04
pIC50 (CYP2B6; 0 min pre-incubation, pooled human microsomes, read-out: IC50 CYP2B6 (reversible inhibition)): 4.58
CYP2B6 IC50 fold shift (CYP2B6; [2]): none
pIC50 (CYP2B6; pre-incubation 30 min (NADPH), read-out: CYP2B6 IC50): < 4.52
pIC50 (CYP2B6; pre-incubation 30 min (NO NADPH), read-out: CYP2B6 IC50): 4.61
CYP2C19 IC50 fold shift (CYP2C19; [2]): none
pIC50 (CYP2C19; pre-incubation 0 min): < 4.52
pIC50 (CYP2C19; pre-incubation 30 min (NADPH)): < 4.52
pIC50 (CYP2C19; [3]): < 4.52
IC50 fold shift between 30 min pre-incubation plus NADPH and 0 min preincubation [1]: ≤ 1.5 fold
